Data from US5002959A, “BU-4146T antibiotic” (Bristol-Myers Squibb Company, priority 1989, dated 1991).
Values after ≈ are worked out from the molar mass of the structure shown. Where two headings read alike, the source gives them in different places.

Columns and labels:
[1] = Cytotoxicity of hydrogenated derivative; assay type: cell-based
[2] = system: DNA synthesis in B16-F10 melanoma cells; assay: Inhibition of macromolecule synthesis in B16-F10 melanoma cells: DNA; assay type: cell-based, murine; settings: for IC50: Mus musculus, B16-F10, 3H-thymidine, 3.5 hours
Experimental: (§1) Inhibitory effects of BU-4146T on the macromolecule (DNA, RNA and protein) synthesis were determined in cultured B16-FlO melanoma cells. B16-FlO cells (10^5 cells/ml) were incubated with the compound at 37° C. for 3.5 hours (for DNA synthesis) or 4 hours (for RNA and protein synthesis). Labelled presursor, ^3 H-thymidine, ^14 C-uridine or ^3 H-leucine was added to the culture and further incubated for 30 minutes (for DNA) or 60 minutes (for RNA and protein). After washing with chilled 5% trichloroacetic acid solution, the radio activity incorporated into the acid-insoluble fraction of the tumor cells was determined by a liquid scintillation counter.

[3] = system: RNA synthesis in B16-F10 melanoma cells; assay: Inhibition of macromolecule synthesis in B16-F10 melanoma cells: RNA; assay type: cell-based, murine; settings: Mus musculus, 14C-uridine, 4 hours
Experimental: as §1

[4] = system: protein synthesis in B16-F10 melanoma cells; assay: Inhibition of macromolecule synthesis in B16-F10 melanoma cells: protein; assay type: cell-based, murine; settings: Mus musculus, 3H-leucine, 4 hours
Experimental: as §1

[5] = system: Aspergillus flavus; assay: Antifungal MIC by serial agar dilution method; assay type: cell-based; settings: strain FA21436
Experimental: (§2) The minimum inhibitory concentrations (MICs) of BU-4146T were determined against various bacteria and fungi by the serial agar dilution method. Nutrient agar (Eiken) was used for bacteria and Sabouraud dextrose agar (Difco) for fungi. The inoculum size was adjusted to 10^2 -10^4 cfu/ml for bacteria and 10^3 cfu/ml for fungi.

[6] = system: Aspergillus fumigatus; assay: Antifungal MIC by serial agar dilution method; assay type: cell-based
Experimental: as §2

[7] = system: Blastomyces dermatidis; assay: Antifungal MIC by serial agar dilution method; assay type: cell-based; settings: strain IF08144
Experimental: as §2

[8] = system: Candida albicans; assay: Antifungal MIC by serial agar dilution method; assay type: cell-based
Experimental: as §2

[9] = system: Cryptococus neoformans; assay: Antifungal MIC by serial agar dilution method; assay type: cell-based; settings: Cryptococcus neoformans
Experimental: as §2

[10] = system: Fusarium moniliforme; assay: Antifungal MIC by serial agar dilution method; assay type: cell-based; settings: Fusarium verticillioides; strain A2284
Experimental: as §2

[11] = system: Mucor spinosus; assay: Antifungal MIC by serial agar dilution method; assay type: cell-based; settings: strain IF05317
Experimental: as §2

[12] = system: Petriellidium boydii; assay: Antifungal MIC by serial agar dilution method; assay type: cell-based; settings: Scedosporium boydii; strain IF08078
Experimental: as §2

[13] = system: Sporothrix schenckii; assay: Antifungal MIC by serial agar dilution method; assay type: cell-based; settings: strain IF08158
Experimental: as §2

[14] = system: Trichophyton mentagrophytes; assay: Antifungal MIC by serial agar dilution method; assay type: cell-based
Experimental: as §2

[15] = system: Piricularia oryzae; assay: microbe, parasite or virus in culture; assay type: cell-based
[16] = system: Gram-negative bacteria; assay: Antibacterial activity by serial agar dilution method; assay type: cell-based; settings: at 100 mcg/ml
Experimental: as §2

[17] = system: Gram-positive bacteria; assay: as above; assay type: cell-based; settings: at 100 mcg/ml
Experimental: as §2

[18] = system: fungi; assay: Antifungal activity as a whole (serial agar dilution); assay type: cell-based; settings: versus streptimidone
Experimental: as §2

[19] = system: B16-F10 (murine melanoma) cells; assay: In vitro cytotoxicity; assay type: cell-based; settings: Mus musculus; B16-F10, 72 hours
Experimental: (§3) B16-FIO, Moser and HCT-116 cells were harvested and implanted into wells of 96-well microtiter plate with test materials at the inoculum sizes of 3×10^4, 6×10^4 and 6×10^4 cell/ml, respectively. They were incubated at 37° C. in a humidified atmosphere of 5% carbon dioxide and 95% air for 72 hours. The cytotoxicity against the tumor cells was determined colorimetrically at 540 nm after staining viable cells.

[20] = system: HCT-116 (human colon carcinoma) cells; assay: In vitro cytotoxicity; assay type: cell-based; settings: HCT-116, 72 hours
Experimental: as §3

[21] = system: Moser (human colorectal carcinoma) cells; assay: In vitro cytotoxicity; assay type: cell-based; settings: 72 hours
Experimental: as §3

[22] = system: murine and human tumor cells (B16-F10, Moser, HCT-116); assay: In vitro cytotoxicity, comparison over the tumor cell lines; assay type: cell-based; settings: versus mitomycin C; approximately
Experimental: as §3

[23] = Solubility; assay type: physicochemical
[24] = Trichophyton mentagrophytes, strain D155, read-out: MIC

## C/C(=C\C(C)C(=O)CC(O)CC1CC(=O)NC(=O)C1)C1OC(=O)CCCCCCCCC1C (stereo not shown) [hexahydro-BU-4146T]
[1]; in words
  cytotoxicity: weak cytotoxicity
[1]; versus BU-4146T
  cytotoxicity, times weaker than that of BU-4146T: about one hundred

## CO[C@@]12[C@H](COC(N)=O)C3=C(C(=O)C(C)=C(N)C3=O)N1C[C@@H]1N[C@@H]12 [Mitomycin C, reference compound]
[2]
  IC50: 1.6 µg/mL (≈ 4.79 µM)
[3]
  IC50: 11 µg/mL (≈ 32.9 µM)
[4]
  IC50: 60 µg/mL (≈ 179 µM)

## C/C(=C\C(C)C(=O)CC(O)CC1CC(=O)NC(=O)C1)C1OC(=O)/C=C/CC/C=C/C=C\C1C (stereo not shown) [BU-4146T]
[5]
  MIC: 3.1 µg/mL (≈ 6.77 µM)
[6]; strain IAM2034
  MIC: 1.6 µg/mL (≈ 3.5 µM)
[6]; strain IAM2530
  MIC: 0.8 µg/mL (≈ 1.75 µM)
[7]
  MIC: 12.5 µg/mL (≈ 27.3 µM)
[8]; strain A9540
  MIC: > 100 µg/mL
[8]; strain IAM4888
  MIC: > 100 µg/mL
[9]; strain D49
  MIC: 3.1 µg/mL (≈ 6.77 µM)
[9]; strain IAM4514
  MIC: 3.1 µg/mL (≈ 6.77 µM)
[10]
  MIC: 0.8 µg/mL (≈ 1.75 µM)
[11]
  MIC: 1.6 µg/mL (≈ 3.5 µM)
[12]
  MIC: 3.1 µg/mL (≈ 6.77 µM)
[13]
  MIC: 100 µg/mL (≈ 219 µM)
[14]; [24]
  MIC: 100 µg/mL (≈ 219 µM)
[14]; strain No. 4329
  MIC: 100 µg/mL (≈ 219 µM)
[15]
  MIC: 3.1 µg/mL (≈ 6.77 µM)
[16]
  inhibitory activity against Gram-negative bacteria: did not show inhibitory activity
[17]
  inhibitory activity against Gram-positive bacteria: did not show inhibitory activity
[18]
  antifungal activity, times more potent than streptimidone: 30-100 times
[19]
  IC50: 0.03 µg/mL (≈ 0.0656 µM)
[20]
  IC50: 0.014 µg/mL (≈ 0.0306 µM)
[21]
  IC50: 0.047 µg/mL (≈ 0.103 µM)
[22]
  IC50 values, times superior to those of mitomycin C: 20-60 times
[2]
  IC50: 0.023 µg/mL (≈ 0.0503 µM)
[2]; in terms of IC50, DNA and protein versus RNA
  potency in DNA and protein synthesis, times higher than in RNA synthesis: ~200 times
[3]
  IC50: 4.2 µg/mL (≈ 9.18 µM)
[4]
  IC50: 0.024 µg/mL (≈ 0.0525 µM)
[23]; n-hexane
  solubility in n-hexane: practically insoluble
[23]; organic solvents
  solubility in acetonitrile, n-butanol, methanol, ethyl acetate, chloroform and dimethyl sulfoxide: readily soluble
[23]; water
  solubility in water: practically insoluble

## C=C/C(C)=C/[C@H](C)C(=O)C[C@H](O)CC1CC(=O)NC(=O)C1 [Streptimidone, reference compound]
[5]
  MIC: > 100 µg/mL
[6]; strain IAM2034
  MIC: > 100 µg/mL
[6]; strain IAM2530
  MIC: > 100 µg/mL
[7]
  MIC: > 100 µg/mL
[8]; strain A9540
  MIC: > 100 µg/mL
[8]; strain IAM4888
  MIC: > 100 µg/mL
[9]; strain D49
  MIC: 50 µg/mL (≈ 170 µM)
[9]; strain IAM4514
  MIC: 50 µg/mL (≈ 170 µM)
[10]
  MIC: 50 µg/mL (≈ 170 µM)
[11]
  MIC: > 100 µg/mL
[12]
  MIC: > 100 µg/mL
[13]
  MIC: > 100 µg/mL
[14]; [24]
  MIC: > 100 µg/mL
[14]; strain No. 4329
  MIC: > 100 µg/mL
[15]; read-out: MIC
  MIC: > 100 µg/mL
